According to patent US9567339B2, “Primary carboxamides as BTK inhibitors” (AbbVie Inc., priority 2013, dated 2017):
Read-outs that look alike come from different tables or passages of the source.

Biological target: BTK, recombinant human catalytic domain (aa 393-659) (Homo sapiens (Human), UniProt Q06187)
Experiment: In vitro BTK kinase activity measured by time-resolved fluorescence resonance energy transfer (trFRET)
Type: biochemical
[1] = trFRET, 0.001 mM ATP, biotin-TYR1 peptide substrate, read-out: Btk IC50

Sequence of BTK, recombinant human catalytic domain (aa 393-659) (Q06187 393-659): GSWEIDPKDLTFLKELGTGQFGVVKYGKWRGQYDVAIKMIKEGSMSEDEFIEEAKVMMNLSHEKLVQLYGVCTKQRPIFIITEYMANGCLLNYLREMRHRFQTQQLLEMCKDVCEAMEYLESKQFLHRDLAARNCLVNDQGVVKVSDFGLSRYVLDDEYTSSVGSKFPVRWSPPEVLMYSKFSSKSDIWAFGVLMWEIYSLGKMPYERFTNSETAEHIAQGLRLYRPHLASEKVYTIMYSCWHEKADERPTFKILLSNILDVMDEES

Row | IC50 [1] | IC50 (read-out: Btk IC50) | Compound | also measured
1 | 1000 to 10000 nM |  | C=C(C)C(=O)NCc1ccccc1-c1cc2c(-c3cccc(NC(=O)c4nccs4)c3C)ccc(C(N)=O)c2[nH]1 [D.1.10] | 
2 | 1000 to 10000 nM |  | Cc1c(NC(=O)c2ccc(C(C)(C)C)cc2)cccc1-c1ccc(C(N)=O)c2[nH]ccc12 [A.5.6] | 
3 |  | < 100 nM | CS(=O)(=O)N1CC=C(c2cc3c(N4CCC[C@@H](N5CCn6ccnc6C5=O)C4)ccc(C(N)=O)c3[nH]2)CC1 [O.1.3*] | 
4 |  | < 100 nM | Cc1c(NC(=O)CCN2CCCC2)cccc1-c1ccc(C(N)=O)c2[nH]c(C3=CCN(S(C)(=O)=O)CC3)cc12 [D.7.12] | 
5 |  | < 100 nM | C=CC(=O)N1CCC[C@@H](c2cnc(C(N)=O)c3sc(-c4cnn(C)c4)nc23)C1 [E.9.37] | 
6 | 1000 to 10000 nM |  | Cc1c(NC(=O)c2nccs2)cccc1-c1ccc(C(N)=O)c2[nH]cc(NC(=O)CC#N)c12 [D.3.1] | 
7 |  | 1000 to 10000 nM | NC(=O)c1ccc(N2CCC[C@@H](n3cnc4ccc(F)cc4c3=O)C2)c2cc(-c3ccc(F)cc3)[nH]c12 [O.1.15*] | 
8 |  | < 100 nM | COC1CCCC(C(=O)Nc2cccc(-c3ccc(C(N)=O)c4[nH]c(C5=CCN(S(C)(=O)=O)CC5)cc34)c2C)C1 (centres unmarked) [D.7.34] | 
9 | < 100 nM |  | CC(=O)N1CC=C(c2cc3c(-c4cccc(NC(=O)c5ccc(C(C)(C)C)cc5)c4C)ccc(C(N)=O)c3[nH]2)CC1 [A.3.3] | 
10 |  | 100 to 1000 nM | C=CC(=O)Nc1cccc(-c2ccc(C(N)=O)c3[nH]ccc23)c1OC [E.1.30] | 
11 |  | < 100 nM | Cc1c(NC(=O)C(C)C)cccc1-c1ccc(C(N)=O)c2[nH]c(C3=CCN(S(C)(=O)=O)CC3)cc12 [D.7.40] | 
12 | < 100 nM |  | CC(=O)N1CC=C(c2cc3c(-c4cccc(NC(=O)c5nccs5)c4C)ccc(C(N)=O)c3[nH]2)CC1 [A.3.4] | 
13 | < 100 nM |  | C=CC(=O)Nc1cccc(-c2ccc(C(N)=O)c3[nH]c(-c4cccc(C(=O)N5CCN(C)CC5)c4)cc23)c1C [A.1.31] | 
14 | < 100 nM |  | Cc1c(N)cccc1-c1ccc(C(N)=O)c2[nH]c(C3=CCN(S(C)(=O)=O)CC3)cc12 [A.4.5, 4-(3-amino-2-methylphenyl)-2-(1-(methylsulfonyl)-1,2,3,6-tetrahydropyridin-4-yl)-1H-indole-7-carboxamide] | 
15 |  | 100 to 1000 nM | Cc1c(NC(=O)/C=C/CN(C)C)cccc1-c1cnc(C(N)=O)c2[nH]ccc12 [J.2.1] | 
16 |  | 100 to 1000 nM | C=CC(=O)N1CCC[C@H](c2ncc(C(N)=O)c3[nH]ccc23)C1 [E.9.33] | 
17 | < 100 nM |  | Cc1c(-c2ccc(C(N)=O)c3[nH]c(-c4cnn(C[C@@H](O)CO)c4)cc23)cccc1-n1cnc2ccccc2c1=O [K.1] | 
18 |  | 1000 to 10000 nM | NC(=O)c1ccc(N2CCC[C@@H](n3cnc4ccccc4c3=O)C2)c2cc[nH]c12 [O.1.12*] | 
19 |  | 100 to 1000 nM | NC(=O)c1ccc(N2CCC[C@@H](n3cnc4ccccc4c3=O)C2)c2cc(-c3cccnc3)[nH]c12 [O.1.27*] | 
20 |  | < 100 nM | CC/C=C(\C)C(=O)Nc1cccc(-c2ccc(C(N)=O)c3[nH]c(C4=CCN(S(C)(=O)=O)CC4)cc23)c1C [D.7.16] | 
21 |  | < 100 nM | C=CC(=O)N1CC(N(C)c2ccc(C(N)=O)c3[nH]c(-c4cnn(C)c4)cc23)C1 [E.9.14] | 
22 |  | 1000 to 10000 nM | C=CC(=O)N(CC1CCCC1)c1cccc(-c2ccc(C(N)=O)c3[nH]ccc23)c1 [E.1.34, 4-(3-(N-(cyclopentylmethyl)acrylamido)phenyl)-1H-indole-7-carboxamide] | 
23 | 1000 to 10000 nM |  | CNc1cccc(-c2ccc(C(N)=O)c3[nH]ccc23)c1 [A.6.2] | 
24 | < 100 nM |  | C=CC(=O)N[C@H]1CC[C@H](c2ccc(C(N)=O)c3[nH]ccc23)C1 (relative stereo) [Example 11, 4-(trans-3-Acrylamidocyclopentyl)-1H-indole-7-carboxamide] | 
25 | < 100 nM |  | C=CC(=O)N[C@@H]1CC[C@H](c2ccc(C(N)=O)c3[nH]ccc23)C1 (relative stereo) [Example 10, 4-(cis-3-Acrylamidocyclopentyl)-1H-indole-7-carboxamide] | 
26 | < 100 nM |  | CC(=O)N1CC=C(c2cc3c(-c4cccc(-n5cnc6ccccc6c5=O)c4C)ccc(C(N)=O)c3[nH]2)CC1 [A.3.1] | 
27 | < 100 nM |  | Cn1cc(-c2cc3c(-c4cccc(-n5ccc6cc(C7CC7)cc(F)c6c5=O)c4CO)ccc(C(N)=O)c3[nH]2)cn1 [A.15.1] | 
28 | < 100 nM |  | Cc1c(NC(=O)c2ccc(C(C)(C)C)cc2)cccc1-c1ccc(C(N)=O)c2[nH]c(-c3cccnc3)cc12 [A.7.1] | 

The next lines start with the compound.

Row | Compound | IC50 [1] | IC50 (read-out: Btk IC50) | also measured
29 | C=CC(=O)Nc1cc(NCc2nccs2)cc(-c2ccc(C(N)=O)c3[nH]c(C4=CCN(S(C)(=O)=O)CC4)cc23)c1 [Example 6, 4-(3-Acrylamido-5-(thiazol-2-ylmethylamino)phenyl)-2-(1-(methylsulfonyl)-1,2,3,6-tetrahydropyridin-4-yl)-1H-indole-7-carboxamide] | < 100 nM |  | 
30 | Cc1c(NC(=O)c2nccs2)cccc1-c1ccc(C(N)=O)c2[nH]c(-c3cnn(C)c3)cc12 [A.2.2] | < 100 nM |  | 
31 | CC#CC(=O)Nc1c[nH]c2c(C(N)=O)ccc(-c3cccc(NC(=O)c4nccs4)c3C)c12 [D.3.5] | 1000 to 10000 nM |  | 
32 | CC(=O)N1CC=C(c2cc3c(-c4cccc(-n5cnc6ccccc6c5=O)c4C)ccc(C(N)=O)c3[nH]2)CC1 [E.8.2] |  | < 100 nM | 
33 | Cc1c(NC(=O)c2nccs2)cccc1-c1ccc(C(N)=O)c2[nH]c(-c3ccccc3CNC(=O)CC#N)cc12 [D.1.3] | 100 to 1000 nM |  | 
34 | Cc1c(NC(=O)c2nccs2)cccc1-c1ccc(C(N)=O)c2[nH]cc(NC(=O)CCl)c12 [E.5.1] |  |  | IC50: 1000 to 10000 nM
35 | C=CC(=O)N1CC(N(C)c2ccc(C(N)=O)c3[nH]c([C@@H]4CCOC4)cc23)C1 [Example 5.1] |  | < 100 nM | 
36 | Cc1nc(C(=O)Nc2cccc(-c3ccc(C(N)=O)c4[nH]c(C5=CCN(S(C)(=O)=O)CC5)cc34)c2C)cs1 [D.7.30] |  | < 100 nM | 
37 | Cc1ccc(-c2cc3c(-c4nccs4)ccc(C(N)=O)c3[nH]2)cc1 [U.1.2] |  | < 100 nM | 
38 | CS(=O)(=O)N1CC=C(c2cc3c(N4CCC[C@@H](N5CCCCC5=O)C4)ccc(C(N)=O)c3[nH]2)CC1 [Example 12, (R)-2-(1-(Methylsulfonyl)-1,2,3,6-tetrahydropyridin-4-yl)-4-(2-oxo-1,3′-bipiperidin-1′-yl)-1H-indole-7-carboxamide] | 100 to 1000 nM |  | 
39 | Cc1c(NC(=O)c2nccs2)cccc1-c1ccc(C(N)=O)c2[nH]c(-c3ccccc3CN)cc12 [Example 1, N-(3-(2-(2-(aminomethyl)phenyl)-7-carbamoyl-1H-indol-4-yl)-2-methylphenyl)thiazole-2-carboxamide] | 100 to 1000 nM |  | 
40 | Cc1c(-c2ccc(C(N)=O)c3[nH]c(-c4cnn(C)c4)nc23)cccc1-n1cnc2ccccc2c1=O [Example 14, 2-(1-Methyl-1H-pyrazol-4-yl)-4-(2-methyl-3-(4-oxoquinazolin-3(4H)-yl)phenyl)-1H-benzo[d]imidazole-7-carboxamide] | 100 to 1000 nM |  | 
41 | C=CC(=O)N1CC(N(C)c2ccc(C(N)=O)c3[nH]c(C4CCN(CCC)CC4)cc23)C1 [E.9.20] |  | < 100 nM | 
42 | Cc1ccc(-c2cc3c(-c4ccsc4)ccc(C(N)=O)c3[nH]2)cc1 [A.8.10] | 100 to 1000 nM |  | 
43 | Cc1c(NC2COC2)cccc1-c1ccc(C(N)=O)c2[nH]c(C3=CCN(S(C)(=O)=O)CC3)cc12 [A.4.11] | < 100 nM |  | 
44 | C=CC(=O)N1CC(N(C)c2ccc(C(N)=O)c3[nH]c(-c4cc5n(n4)CCOC5)cc23)C1 [E.9.4] |  | < 100 nM | 
45 | Cc1c(NC(=O)CF)cccc1-c1ccc(C(N)=O)c2[nH]c(C3=CCN(S(C)(=O)=O)CC3)cc12 [D.7.22] |  | < 100 nM | 

Row | Compound | IC50 [1] | IC50 (read-out: Btk IC50) | also measured
46 | C=CC(=O)Nc1cccc(-c2ccc(C(N)=O)c3[nH]ccc23)c1C#N [E.1.27] |  | 100 to 1000 nM | 
47 | NC(=O)c1ccc(-c2ccccc2N)c2cc[nH]c12 [A.5.1, 4-(2-aminophenyl)-1H-indole-7-carboxamide] | 1000 to 10000 nM |  | 
48 | Cc1c(NC(=O)/C=C/c2cccnc2)cccc1-c1ccc(C(N)=O)c2[nH]ccc12 [D.8.4] | 100 to 1000 nM |  | 
49 | Cc1ccc(-c2cc3c(-c4ccn[nH]4)ccc(C(N)=O)c3[nH]2)cc1 [A.8.1] | 100 to 1000 nM |  | 
50 | CC(=O)c1ccc(-c2ccc(C(N)=O)c3[nH]c(-c4ccc(C)cc4)cc23)s1 [A.8.5] | 100 to 1000 nM |  | 
51 | C=CC(=O)N1CCC[C@@H](c2ccc(C(N)=O)c3[nH]c(-c4cnn(C)c4)cc23)C1 [Example 4.1] |  | < 100 nM | 
52 | C=CC(=O)N1CC([C@@H](C)c2ncc(C(N)=O)c3[nH]ccc23)C1 [E.9.28] |  | < 100 nM | 
53 | Cc1c(NC(=O)/C=C/CN(C)C)cccc1-c1ccc(C(N)=O)c2[nH]c(C3=CCN(S(C)(=O)=O)CC3)cc12 [D.7.2] |  | < 100 nM | 
54 | C=CC(=O)N1C[C@H](CO)C[C@H](c2ccc(C(N)=O)c3[nH]ccc23)C1 [E.9.47] |  | 100 to 1000 nM | 
55 | C=C(C(=O)Nc1cccc(-c2ccc(C(N)=O)c3[nH]ccc23)c1C)c1ccccc1 [D.8.7] | 100 to 1000 nM |  | 
56 | Cc1c(NC(=O)c2nccs2)cccc1-c1ccc(C(N)=O)c2[nH]cc(C)c12 [Example 3, N-(3-(7-carbamoyl-3-methyl-1H-indol-4-yl)-2-methylphenyl)thiazole-2-carboxamide] | 100 to 1000 nM |  | 
57 | C=CC(=O)N1CCOC[C@@H](c2ccc(C(N)=O)c3[nH]ccc23)C1 [E.9.38] |  | < 100 nM | 
58 | Cc1c(-c2ccc(C(N)=O)c3[nH]c(C4=CCN(S(C)(=O)=O)CC4)cc23)cccc1N(CCO)C(=O)c1ccc(C(F)F)cc1 [A.4.14] | < 100 nM |  | 
59 | CC(=O)N1CCC(c2cc3c(-c4cccc(N)c4C)ccc(C(N)=O)c3[nH]2)CC1 [L.1, 2-(1-Acetylpiperidin-4-yl)-4-(3-amino-2-methylphenyl)-1H-indole-7-carboxamide] | 100 to 1000 nM |  | 
60 | CS(=O)(=O)N1CC=C(c2cc3c(N4CC[C@@H](O)[C@H](NC(=O)c5nccs5)C4)ccc(C(N)=O)c3[nH]2)CC1 (relative stereo) [O.1, N-(trans-1-(7-carbamoyl-2-(1-(methylsulfonyl)-1,2,3,6-tetrahydropyridin-4-yl)-1H-indol-4-yl)-4-hydroxypiperidin-3-yl)thiazole-2-carboxamide] | < 100 nM |  | 
61 | Cc1c(NC(=O)c2nccs2)cccc1-c1ccc(C(N)=O)c2[nH]c(-c3ccccc3CNC(=O)COc3ccc(F)cc3)cc12 [D.1.7] | 1000 to 10000 nM |  | 
62 | Cn1cc(-c2cc3c(-c4cccc(NC(=O)c5nccs5)c4CO)ccc(C(N)=O)c3[nH]2)cn1 [M.1, N-(3-(7-carbamoyl-2-(1-methyl-1H-pyrazol-4-yl)-1H-indol-4-yl)-2-(hydroxymethyl)phenyl)thiazole-2-carboxamide] | < 100 nM |  | 
